Data set [1] relates to healthy female Balb/c mice. Conditions: mouse, in vivo. The source says:
So far we have determined maximum tolerated doses for compounds 4, 6, 16, 31, and 33 using healthy female Balb/c mice.

Data set [2] concerns V79 hamster fibroblast cells. Briefly: Clonogenic cytotoxicity assay in V79 cells. Conditions: concentrations up to 200 μM. It counts as cell-based. As to the method: Human glioblastoma U373 MG, hamster V79 fibroblast, and mouse melanoma B16 cells were obtained from the American Type Culture Collection. Rat gliosarcoma cells were kindly provided by the University of California at San Francisco Brain Tumor Research Group. All cells were maintained in log phase monolayer cultures with RPMI 1640 supplemented with 10% fetal bovine serum and 2 mM glutamine. We have also determined the cytotoxicity of porphyrins 4, 16, 18, and 31 in V79 hamster fibroblast cells using a clonogenic assay. For each of these porphyrins, we found CS50>300 μM, and we observed no toxicity (i.e., no effect on colony survival) at concentrations up to 200 μM.

Data set [3] deals with rat 9 L gliosarcoma cells. The data set can be described thus: Dark cytotoxicity assay, 9L cells. Conditions: 24 hour exposure, concentrations up to 250 μM, read-out: IC50 (dark toxicity, inhibition of proliferation). It counts as cell-based. As to the method: (§1) Human glioblastoma U373 MG, hamster V79 fibroblast, and mouse melanoma B16 cells were obtained from the American Type Culture Collection. Rat gliosarcoma cells were kindly provided by the University of California at San Francisco Brain Tumor Research Group. All cells were maintained in log phase monolayer cultures with RPMI 1640 supplemented with 10% fetal bovine serum and 2 mM glutamine.
(§2) Cells were seeded in 96-well culture plates, and were allowed to settle and attach for 24-48 hours. Triplicate wells were then exposed to twofold serial dilutions of test compounds at concentrations up to 250 μM. Compounds 4, 6, 10, and 12 in crystalline form were carefully weighed and dissolved in 100% DMSO to prepare stock solutions. Subsequent dilutions were performed directly in the culture medium just before the medium was administered to cells. After short-term (2 hour) or long-term (24 hour) exposure, cells were washed, and the wells were refilled with fresh culture medium. For dark toxicity trials, cells were allowed to proliferate for an additional 48-72 hours. For phototoxicity trials, washed cells were irradiated for 10 minutes with broad spectrum (600-700 nm) red light, and were then returned to an incubator for 48-72 hours.

Data set [4] concerns human U-373MG glioblastoma cells. Briefly: Dark cytotoxicity assay, U-373 MG cells. Conditions: 24 hour exposure, concentrations up to 250 μM, read-out: IC50 (dark toxicity, inhibition of proliferation). It is filed as cell-based. The procedure:
as §1, §2

Consider “Zn(II)-meso-tetra[4-(1-methyl-nido-carboranyl)methylphenyl]porphyrin tetrapotassium salt [Compound 6]”, for which, in data set [1], the maximum tolerated dose result was “exceeded 300 mg per kg of body weight”.

As to “5,15-bis[bis-3,5-(1-methyl-o-carboranyl)methylphenyl]porphyrin [Compound 33]”, in data set [1], the maximum tolerated dose result is listed as “exceeded 300 mg per kg of body weight”. Regarding “Zn(II)-meso-tetra[4-(nido-carboranyl)phenyl]porphyrin tetrapotassium salt [Compound 18]”, the “toxicity (effect on colony survival)” value in data set [2] is listed as “no toxicity”. For the substance “meso-tetra[4-(nido-carboranyl)phenyl]porphyrin tetrapotassium salt [Compound 16]”, the maximum tolerated dose result in data set [1] is reported as “exceeded 300 mg per kg of body weight”. Further, the “toxicity (effect on colony survival)” value in data set [2] was “no toxicity”. As for “meso-tetra[3-(1-methyl-nido-carboranyl)methylphenyl]porphyrin tetrapotassium salt [Compound 10]”, the IC50 in data set [3] and in data set [4] was around 150 µM in each case. Take “meso-tetra[4-(1-methyl-nido-carboranyl)methylphenyl]porphyrin tetrapotassium salt [Compound 4]”: the maximum tolerated dose result in data set [1] was “exceeded 300 mg per kg of body weight”. For the same substance, the IC50 in data set [3] and in data set [4] was around 150 µM in each case. Moreover, the “toxicity (effect on colony survival)” value in data set [2] is listed as “no toxicity”.
